Patent publication US7947704B2, “2,4,6-phenyl-substituted cyclic ketoenols” (Bayer CropScience AG, priority 2004, dated 2011)

How the values were obtained:
Type in all cases: in vivo
Myzus persicae = experiment: Myzus Test (spray treatment); details: 500 g/ha; after 5 d
Meloidogyne incognita = experiment: Meloidogyne Test (gall formation on lettuce roots); details: 20 ppm; after 14 d
Experimental: To produce a suitable preparation of active compound, 1 part by weight of active compound is mixed with the stated amounts of solvent and emulsifier, and the concentrate is diluted with water to the desired concentration.
Containers are filled with sand, solution of active compound, Meloidogyne incognita egg/larvae suspension and lettuce seeds. The lettuce seeds germinate and the plants develop. On the roots, galls are formed.
After the desired period of time, the nematicidal action is determined in % by gall formation. 100% means that no galls were found; 0% means that the number of galls on the treated plants corresponds to that of the untreated control.

Maize [1] = experiment: Safener action after seed dressing, herbicide pre-emergence; details: seed not safener-dressed
Experimental: Safener Action after Seed Dressing
The number of crop plant seeds needed for each safener application rate was calculated. Based on the weight of 100 seeds, sufficient seeds were weighed into screw top glass bottles approximately twice the volume of the seeds.
The prospective safeners were formulated as wettable powders or water-dispersible granules. These formulations were weighed out so that the required application rates (g of a.i./kg of seed) were obtained. The samples were added to the seeds in the bottles, followed by sufficient water to produce a seed dressing. The bottles were closed and then placed in an overhead shaker (set at medium speed for a period of up to one hour) so that the seeds were evenly coated with the seed dressing. The bottles were opened and the seeds were used in the pre-emergence tests.
Pre-emergence Application of Herbicides
The safener-treated seeds and untreated seeds as controls were sown in a sandy loam soil in round pots having a diameter of 7 to 13 cm and covered with approximately 0.5 to 1 cm of a 1:1 mix of sandy loam soil and sand. The herbicides, as liquid (for example emulsifiable concentrates) or dry (for example wettable powders) formulations, were diluted to the required concentrations using deionized water and applied to the soil surface using a track sprayer calibrated to deliver 300 liters of spray solution per hectare.
The pots were placed under good growing conditions in a greenhouse, and a visual assessment of the herbicidal effects was made 3 to 4 weeks after the application of the herbicide. The assessment was on a percentage basis in comparison to untreated control plants (0%=no damage, 100%=complete kill).
Herbicide application by the pre-emergence method, safener-dressed: […]

Winter wheat = experiment: Herbicidal action and safener action, post-emergence, container trials with cereal
Experimental: (§1) Herbicidal Action and Safener Action, Pre-emergence or Post-emergence
(§2) Seeds of rhizome pieces of monocotyledonous and dicotyledonous harmful plants and of crop plants are placed into sandy loam in pots made of peat, covered with soil and cultivated in a greenhouse under growth conditions. In the pre-emergence application, safener and herbicide are applied after sowing, the post-emergence treatment is carried out about two to three weeks after sowing, at the three-leaf stage of the test plants. The herbicide/safener active compound combinations according to the invention, formulated as emulsion concentrates, and in parallel experiments the correspondingly formulated individual active compounds are, at various dosages at a water application rate of 300 l/ha (converted), sprayed onto the surface of the soil when applied by the pre-emergence method and onto the green parts of the plants when applied by the post-emergence method. Pre-emergence evaluation is carried out after 2-4 weeks, post-emergence evaluation is carried out after 1-3 weeks. During this time, the test plants are kept in a greenhouse under optimum growth conditions. The effect of the preparation is scored visually in comparison to untreated controls.
(§3) Container trials with cereal in the greenhouse.
(§4) Safener and herbicide were applied successively to the plants by the post-emergence method (application rates: see Tables)

Summer barley = experiment: as above
Experimental: as §1, §2, §3, §4

Summer wheat = experiment: as above
Experimental: as §1, §2, §3, §4

Maize [2] = experiment: Herbicidal action and safener action, safener and herbicide applied successively pre-emergence
Experimental: as §1, §2
Safener and herbicide applied successively by the pre-emergence method.

Lolium = experiment: Herbicidal pre-emergence action; details: 320 g of a.i./ha
Text: (§5) 1. Herbicidal Pre-emergence Action
(§6) Seeds of monocotyledonous and dicotyledonous weed and crop plants are placed into sandy loam in wood fibre pots and covered with soil. The test compounds, formulated in the form of wettable powders (WP), are then, in various dosages as aqueous suspension with a water application rate of 600 l/ha (converted), with 0.2% of wetting agent added, applied to the surface of the covering soil.
(§7) After the treatment, the pots are placed in a greenhouse and kept under good growth conditions for the test plants. The visual assessment of the emergence damage on the test plants is carried out after a trial period of 3 weeks by comparison with untreated controls (herbicidal effect in percent (%): 100% effect=the plants have died, 0% effect=like control plants).

Setaria = experiment: Herbicidal pre-emergence action; details: 320 g of a.i./ha
Text: as §5, §6, §7

[3] = herbicide pre-emergence 25 g of a.i./ha
[4] = application rate 25 g of a.i./ha
[5] = application rate 50 g of a.i./ha
[6] = application rate 100 g of a.i./ha
[7] = herbicide pre-emergence 50 g of a.i./ha

COc1cc(C)cc(Cl)c1C1=C(O)C2(CCC(OC)CC2)NC1=O (single isomer, unassigned) [Ex. I-1-a-3]
kill rate against Myzus persicae (Myzus persicae): 100% | kill rate against Meloidogyne (Meloidogyne incognita): 100%

COc1cc(C)cc(Cl)c1C1=C(OC(=O)C(C)C)C2(CCCC2)OC1=O [Ex. I-2-b-1]
kill rate against Myzus persicae (Myzus persicae): 100%

CCOC(=O)OC1=C(c2c(Cl)cc(C)cc2OC)C(=O)OC12CCCC2 [Ex. I-2-c-1]
kill rate against Myzus persicae (Myzus persicae): 100%

CCOC(=O)OC1=C(c2c(Cl)cc(C)cc2OC)C(=O)OC12CCC(OC)CC2 (mixture of isomers) [Ex. I-2-c-2]
kill rate against Myzus persicae (Myzus persicae): 100%

CCOC(=O)OC1=C(c2c(Cl)cc(C)cc2OC)C(=O)NC12CCC(OC)CC2 (stereo not drawn) [Example I-1-c-1]
Maize (%) damage (Maize [1]; [3]): 35% | Winter wheat (%) observed damage (Winter wheat; [4]): 10% | Winter wheat (%) observed damage (Winter wheat; [5]): 30% | Summer barley (%) observed damage (Summer barley; [4]): 10% | Summer barley (%) observed damage (Summer barley; [5]): 30% | Summer barley (%) observed damage (Summer barley; [6]): 60%

COc1cc(C)cc(Cl)c1C1=C(OC(=O)C(C)C)C2(CCC(OC)CC2)NC1=O (stereo not drawn) [Example I-1-b-1]
Summer barley (%) observed damage (Summer barley; [4]): 30% | Summer barley (%) observed damage (Summer barley; [5]): 40% | Summer barley (%) observed damage (Summer barley; [6]): 55%

COc1cc(C)cc(Cl)c1C1=C(O)C2(CCCC2)OC1=O [Ex. I-2-a-1]
kill rate against Myzus persicae (Myzus persicae): 100%

COc1cc(C)cc(Cl)c1C1=C(O)C2(CCC(OC)CC2)OC1=O (stereo not drawn) [Ex. I-2-a-2]
kill rate against Myzus persicae (Myzus persicae): 100%

COc1cc(C)cc(Cl)c1C1=C(O)C2(CCOCC2)NC1=O [Ex. I-1-a-1]
kill rate against Meloidogyne (Meloidogyne incognita): 100%

CCOc1cc(C)cc(Cl)c1C1=C(O)C2(CCC(OC)CC2)NC1=O (single isomer, unassigned) [Example I-1-a-5]
Maize (%) damage (Maize [1]; [3]): 20% | Maize (%) damage (Maize [1]; [7]): 20% | Winter wheat (%) observed damage (Winter wheat; [4]): 10% | Winter wheat (%) observed damage (Winter wheat; [5]): 30% | Winter wheat (%) observed damage (Winter wheat; [6]): 60% | Summer barley (%) observed damage (Summer barley; [4]): 10% | Summer barley (%) observed damage (Summer barley; [5]): 20% | Summer barley (%) observed damage (Summer barley; [6]): 20% | Summer wheat (%) damage (Summer wheat; [4]): 20% | Summer wheat (%) damage (Summer wheat; [5]): 50% | Summer wheat (%) damage (Summer wheat; [6]): 60%

CCOC(=O)OC1=C(c2c(Cl)cc(C)cc2OC)C(=O)OC12CCOCC2 [Ex. I-2-c-3]
kill rate against Myzus persicae (Myzus persicae): 100%

COc1cc(C)cc(Cl)c1C1=C(OC(=O)C(C)C)C2(CCOCC2)OC1=O [Ex. I-2-b-3]
kill rate against Myzus persicae (Myzus persicae): 100%

CCCOc1cc(C)cc(Cl)c1C1=C(O)C2(CCC(OC)CC2)NC1=O (single isomer, unassigned) [Example I-1-a-4]
Maize (%) damage (Maize [2]; [4]): 10% | Maize (%) damage (Maize [2]; [5]): 20% | Maize (%) damage (Maize [1]; [3]): 10% | Maize (%) damage (Maize [1]; [7]): 20% | Winter wheat (%) observed damage (Winter wheat; [4]): 10% | Winter wheat (%) observed damage (Winter wheat; [5]): 30% | Winter wheat (%) observed damage (Winter wheat; [6]): 50% | Summer barley (%) observed damage (Summer barley; [4]): 0% | Summer barley (%) observed damage (Summer barley; [5]): 10% | Summer barley (%) observed damage (Summer barley; [6]): 20% | Summer wheat (%) damage (Summer wheat; [4]): 20% | Summer wheat (%) damage (Summer wheat; [5]): 45% | Summer wheat (%) damage (Summer wheat; [6]): 60%

COc1cc(C)cc(Cl)c1C1=C(O)C(C)(C)NC1=O [Ex. I-1-a-2]
kill rate against Lolium (Lolium): ≥ 80% | kill rate against Setaria (Setaria): ≥ 80%
